Test results reported in patent US20050282811A1, “Diazabicyclic histamine-3 receptor antagonists” (Pfizer Inc, priority 2004, published 2005).

Each compound was assayed against T1, rat histamine H3 receptors (Rattus norvegicus, UniProt Q9QYN8) (assay: Rat H3 Binding (3H-N-methylhistamine displacement, frontal brain membranes)). Conditions: frozen rat frontal brain membranes; radioligand 1 nM 3H-N-methylhistamine; 1 hour incubation.
T1 construct: Frozen rat frontal brain or frozen human post-mortem frontal brain is homogenized; from tissue; host or cells: rat frontal brain membranes
T1 sequence (Q9QYN8 whole entry): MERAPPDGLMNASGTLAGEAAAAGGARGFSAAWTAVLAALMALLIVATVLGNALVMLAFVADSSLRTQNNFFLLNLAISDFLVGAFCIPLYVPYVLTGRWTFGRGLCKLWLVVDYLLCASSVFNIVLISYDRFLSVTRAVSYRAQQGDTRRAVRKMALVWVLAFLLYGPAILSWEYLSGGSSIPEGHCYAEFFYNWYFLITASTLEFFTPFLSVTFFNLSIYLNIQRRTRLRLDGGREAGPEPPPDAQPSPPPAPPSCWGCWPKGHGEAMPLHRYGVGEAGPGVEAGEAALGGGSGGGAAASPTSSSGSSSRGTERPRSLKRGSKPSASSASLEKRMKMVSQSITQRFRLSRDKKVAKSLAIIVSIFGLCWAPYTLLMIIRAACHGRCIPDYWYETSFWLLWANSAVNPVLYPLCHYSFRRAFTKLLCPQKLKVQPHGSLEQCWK
Procedure: The in vitro affinity of the compounds in the present invention at the rat or human histamine H3 receptors can be determined according to the following procedure. Frozen rat frontal brain or frozen human post-mortem frontal brain is homogenized in 20 volumes of cold 50 mM Tris HCl containing 2 mM MgCl2 (pH to 7.4 at 4 degrees C.). The homogenate is then centrifuged at 45,000 G for 10 minutes. The supernatant is decanted and the membrane pellet re-suspended by Polytron in cold 50 mM Tris HCl containing 2 mM MgCl2 (pH to 7.4 at 4 degrees C.) and centrifuged again. The final pellet is re-suspended in 50 mM Tris HCl containing 2 mM MgCl2 (pH to 7.4 at 25 degrees C.) at a concentration of 12 mg/mL. Dilutions of compounds are made in 10% DMSO/50 mM Tris buffer (pH 7.4) (at 10×final concentration, so that the final DMSO concentration is 1%). Incubations are initiated by the addition of membranes (200 microliters) to 96 well V-bottom polypropylene plates containing 25 microliters of drug dilutions and 25 microliters of radioligand (1 nM final concentration ^3H-N-methylhistamine). After a 1 hour incubation, assay samples are rapidly filtered through Whatman GF/B filters and rinsed with ice-cold 50 mM Tris buffer (pH 7.4) using a Skatron cell harvester. Radioactivity is quantified using a BetaPlate scintillation counter.
`COc1ccc(CN2CCN3C[C@H](COCCCN4CCCCC4)CC[C@H]3C2)cc1` (relative stereo) [Example 6] was tested, and the Ki was 55 nM. In the case of `c1ccc(CN2CCN3C[C@H](COCCCN4CCCCC4)CC[C@H]3C2)cc1` (stereo in doubt) [Example 2, trans-2-Benzyl-7-(3-piperidin-1-ylpropoxymethyl)-octahydro-pyrido[1,2-a]pyrazine], the Ki is reported as 125 nM. Compound `c1ccc(CCN2CCN3C[C@H](COCCCN4CCCCC4)CC[C@H]3C2)cc1` (stereo in doubt) [Example 3, trans-2-Phenethyl-7-(3-piperidin-1-ylpropoxymethyl)-octahydro-pyrido[1,2-a]pyrazine] has a Ki of 54 nM. `c1ccc(CCCN2CCN3C[C@H](COCCCN4CCCCC4)CC[C@H]3C2)cc1` (stereo in doubt) [Example 4, trans-2-(3-Phenylpropyl)-7-(3-piperidin-1-ylpropoxymethyl)-octahydro-pyrido[1,2-a]pyrazine] was tested, and the Ki was 37 nM. Compound `CC(=O)c1ccc(CN2CCN3C[C@H](COCCCN4CCCCC4)CC[C@H]3C2)cc1` (stereo in doubt) [Example 5, trans-1-{4-[7-(3-Piperidin-1-ylpropoxymethyl)-octahydro-pyrido[1,2-a]pyrazin-2-ylmethyl]-phenyl}-ethanone] has a Ki of 35 nM. Compound `COc1cccc(CN2CCN3C[C@H](COCCCN4CCCCC4)CC[C@H]3C2)c1` (stereo in doubt) [Example 7, trans-2-(3-Methoxybenzyl)-7-(3-piperidin-1-ylpropoxymethyl)-octahydro-pyrido[1,2-a]pyrazine] has a Ki of 28 nM. In the case of `Fc1ccc(CN2CCN3C[C@H](COCCCN4CCCCC4)CC[C@H]3C2)cc1` (stereo in doubt) [Example 8, trans-2-(4-Fluorobenzyl)-7-(3-piperidin-1-ylpropoxymethyl)-octahydro-pyrido[1,2-a]pyrazine], the Ki is reported as 26 nM. In the case of `Fc1cccc(CN2CCN3C[C@H](COCCCN4CCCCC4)CC[C@H]3C2)c1` (stereo in doubt) [Example 9, trans-2-(3-Fluorobenzyl)-7-(3-piperidin-1-ylpropoxymethyl)-octahydro-pyrido[1,2-a]pyrazine], the Ki is reported as 9 nM. Work on `Clc1ccc(CN2CCN3C[C@H](COCCCN4CCCCC4)CC[C@H]3C2)cc1` (stereo in doubt) [Example 10, trans-2-(4-Chlorobenzyl)-7-(3-piperidin-1-ylpropoxymethyl)-octahydro-pyrido[1,2-a]pyrazine] yielded a Ki of 14 nM. `Clc1cccc(CN2CCN3C[C@H](COCCCN4CCCCC4)CC[C@H]3C2)c1` (stereo in doubt) [Example 11, trans-2-(3-Chlorobenzyl)-7-(3-piperidin-1-ylpropoxymethyl)-octahydro-pyrido[1,2-a]pyrazine] showed a Ki of 33 nM. For `CC(=O)Nc1ccc(CN2CCN3C[C@H](COCCCN4CCCCC4)CC[C@H]3C2)cc1` (stereo in doubt) [Example 12, trans-N-{4-[7-(3-Piperidin-1-ylpropoxymethyl)-octahydro-pyrido[1,2-a]pyrazin-2-ylmethyl]-phenyl}-acetamide], the Ki was 70 nM. Compound `c1cc(CN2CCN3C[C@H](COCCCN4CCCCC4)CC[C@H]3C2)ccn1` (stereo in doubt) [Example 13, trans-7-(3-Piperidin-1-yl-propoxymethyl)-2-pyridin-4-ylmethyl-octahydro-pyrido[1,2-a]pyrazine] has a Ki of 33 nM. `c1ccc(CN2CCN3C[C@H](COCCCN4CCCCC4)CC[C@H]3C2)nc1` (stereo in doubt) [Example 15, trans-7-(3-Piperidin-1-yl-propoxymethyl)-2-pyridin-2-ylmethyl-octahydro-pyrido[1,2-a]pyrazine] gave a Ki of 90 nM. Compound `CN1CCN2C[C@H](COCCCN3CCCCC3)CC[C@H]2C1` (stereo in doubt) [Example 16, trans-2-Methyl-7-(3-piperidin-1-ylpropoxymethyl)-octahydro-pyrido[1,2-a]pyrazine] has a Ki of 114 nM. `CC(=O)c1ccc(CN2CCN3C[C@@H](COCCCN4CCCCC4)CC[C@H]3C2)cc1` (stereo in doubt) [Example 17, cis-1-{4-[7-(3-Piperidin-1-ylpropoxymethyl)-octahydro-pyrido[1,2-a]pyrazin-2-ylmethyl]-phenyl}-ethanone] gave a Ki of 60 nM. `Clc1ccc(CN2CCN3C[C@@H](COCCCN4CCCCC4)CC[C@H]3C2)cc1` (stereo in doubt) [Example 18, cis-2-(4-Chlorobenzyl)-7-(3-piperidin-1-ylpropoxymethyl)-octahydro-pyrido[1,2-a]pyrazine] gave a Ki of over 69 nM. With `CS(=O)(=O)c1ccc(CN2CCN3C[C@@H](COCCCN4CCCCC4)CC[C@H]3C2)cc1` (stereo in doubt) [Example 21, cis-2-(4-Methanesulfonylbenzyl)-7-(3-piperidin-1-ylpropoxymethyl)-octahydro-pyrido[1,2-a]pyrazine] the Ki was 26 nM. `C1CCN(CCCOC[C@@H]2CC[C@H]3CNCCN3C2)CC1` (stereo in doubt) [Intermediate 3, trans-7-(3-Piperidin-1-ylpropoxymethyl)-octahydro-pyrido[1,2-a]pyrazine] gave a Ki of 155 nM. With `CS(=O)(=O)c1ccc(CN2CCN3C[C@H](COCCCN4CCCCC4)CC[C@H]3C2)cc1` [Example 1, trans-(7R, 9aS)-2-(4-Methanesulfonylbenzyl)-7-(3-piperidin-1-ylpropoxymethyl)-octa-hydro-pyrido[1,2-a]pyrazine] the Ki was 42 nM.
